Measurements taken from patent US10145851B2, “Discovery and validation of cancer biomarkers using a protein analysis methodology to analyze specimens” (The Board of Trustees of the Leland Stanford Junior …, priority 2009, dated 2018).
Entries after “also recorded” stand apart in the source; their conditions may differ. Counter-ions that a name gives are not always drawn.

Key:
K562 human CML cell line = test: NIA of K562 CML cells treated with imatinib in vitro; assay type: cell-based; design: activated caspase-3 associated with apoptosis: dose or concentration left out as unconfirmed
Method: The NIA experiments were performed using a Firefly™ or CB1000™ instrument (Cell Biosciences). Briefly, for each capillary analysis, 4 nanoliters of 10 mg/ml lysate were diluted to 0.2 mg/ml in 200 nanoliters HNG-based lysis buffer [20 mM Hepes pH 7.5, 25 mM NaCl, 0.1%, 10% glycerol, Sigma Phosphatase Inhibitor Cocktail 1, Calbiochem Protease Inhibitor] or 200 nanoliters Bicine/CHAPS lysis buffer. 200 nanoliters sample mix containing internal pl standards were added. The Firefly system first performed a charge-based separation (isoelectric focusing) in a 5 cm long, 100 micron inner-diameter capillary. Predicted pl's were calculated using Scansite. Each sample was run on a panel of different pH gradients (3-10, 5-9) to optimize the resolution of different peak patterns. After separation and photo-activated in-capillary immobilization, proteins were detected with antibodies: MYC protein expression was detected using the C-19 rabbit polyclonal antibody that recognizes mouse and human MYC (Santa Cruz Biotechnology). BCL2 protein expression was detected using the clone 124 mouse monoclonal antibody that recognizes human BCL2 (Dako Laboratories). Total ERK1/2 protein expression was detected using a rabbit polyclonal antibody that recognizes mouse and human ERK1/2 (Upstate). Phospho-ERK 1/2 protein expression was detected using a mouse monoclonal antibody that recognizes both mouse and human pERK 1/2 (Cell Signaling). Additional antibodies used were: activated caspase 3 (Cell Signaling), MEK1 (Upstate), pMEK1 (Novus), MEK2 (Abcam), pSTAT3 (Cell Signaling), pSTAT5 (Cell Signaling), pJNK (Cell Signaling), HSP70 (Novus).
Quantitation of the peaks is performed using peak analysis software. The start and end of each peak, and a flat baseline were manually selected. The area of each peak was calculated by dropping verticals to the baseline at the peak start and end, and summing the area between the start and endpoints. […] The areas under different peaks within a single tracing represented various ERK isoforms. […]

[1] = system: human leukemic cell line TF1; test: NIA of TF1 cells before and after treatment with ON01910; assay type: cell-based
Method: Using a single antibody that recognizes both the phosphorylated and unphosphorylated isoforms of ERK, we can determine levels of each ERK isoform, and also percent phosphorylation of ERK. […] To determine if NIA can measure signaling changes during treatment with novel drugs, human leukemic cells were treated with a PLK-1 inhibitor, ON01910 (Onconova, Inc). […] MEK2 phosphorylation decreased by 20% after ON01910 treatment. […] Treatment with ON01910 altered phosphorylation of signaling proteins in TF1 cells.

[2] = system: phosphorylation of STAT3/5; test: NIA/FACS of tumor cells of lymphoma patients treated with atorvastatin; assay type: in vivo, human
Description: FIG. 5A-5C. NIA detected decrease in oncoproteins upon treatment with biologic response modifying therapeutic agent. (FIG. 5A) Schematic for the use of NIA to assess proteomic changes in clinical tumor specimens. Patients undergo pretreatment tumor sampling at baseline and again after 8 d of treatment with atorvastatin. (FIG. 5B) NIA analysis of tumor cells for changes in pSTAT3 and pSTAT5. (FIG. 5C) NIA quantification of pSTAT3 and pSTAT5±s.e.m. Samples were run in triplicate.
Predicted pl's were calculated using Scansite.
Phosphorylation of STAT3/5 decreased in lymphoma patients treated with atorvastatin. Tumor cells were sampled from lymphoma patients day 1 and day 8 of atorvastatin treatment.

mouse model of lymphoma = conditions: associated with specific changes in oncoprotein signaling; cited from earlier work
[3] = TF1 cells after 24 hr of treatment

Compound: Cc1ccc(NC(=O)c2ccc(CN3CCN(C)CC3)cc2)cc1Nc1nccc(-c2cccnc2)n1 [imatinib, imatinib mesylate]
- phosphorylation of STAT3/5, JNK, MEK1 and MEK2 (K562 human CML cell line; K562, imatinib final concentration 10 mM in vitro, 0 h, 4 h and 20 h): changes in phosphorylation
- activated caspase-3 associated with apoptosis (K562 human CML cell line; K562, imatinib in vitro, 0 h, 4 h and 20 h): expected increase
- specific ERK2 phospho-isomer (peak 3) (K562 human CML cell line; K562, imatinib in vitro, 24 hours): decrease; also recorded: change in phospho-ERK

Compound: COc1cc(OC)c(/C=C/S(=O)(=O)Cc2ccc(OC)c(NCC(=O)O)c2)c(OC)c1 [ON01910]
- MEK2 phosphorylation decrease ([1]; TF1 cell line after ON01910 treatment): 20%
- phosphorylation of JNK [1, 3]: increased phosphorylation
- phosphorylation of MEK2 [1, 3]: decreased phosphorylation

Compound: CC(C)c1c(C(=O)Nc2ccccc2)c(-c2ccccc2)c(-c2ccc(F)cc2)n1CC[C@@H](O)C[C@@H](O)CC(=O)O [atorvastatin]
- phosphorylation of STAT3/5 ([2]; after eight days of treatment, NIA): detectable decreases; also recorded: decreased
- STAT3 and STAT5 phosphorylation in CD20 positive cells ([2]; day 1 and day 8 of treatment, NIA and FACS): dramatic decrease
- tumor regression (mouse model of lymphoma): causes tumor regression
